Laboratory results published in patent US20250230193A1, “CYCLIC COMPOUND HAVING SELECTIVE KRAS INHIBITORY EFFECT ON HRAS AND NRAS” (CHUGAI SEIYAKU KABUSHIKI KAISHA, priority 2022, published 2025).

Legend:
[1] = molecular target: GDP-bound NRAS wild-type protein (Homo sapiens, UniProt P01111); assay: Binding to NRAS by surface plasmon resonance (SPR), Single Cycle Kinetics; settings: KD ratio, GDP-bound NRAS wild-type vs GDP-bound KRAS wild-type, SPR
[2] = molecular target: GDP-bound HRAS wild-type protein (Homo sapiens, UniProt P01112); assay: Binding to HRAS by surface plasmon resonance (SPR), Single Cycle Kinetics; settings: KD ratio, GDP-bound HRAS wild-type vs GDP-bound KRAS wild-type, SPR
Chain of GDP-bound HRAS wild-type protein (P01112 whole entry): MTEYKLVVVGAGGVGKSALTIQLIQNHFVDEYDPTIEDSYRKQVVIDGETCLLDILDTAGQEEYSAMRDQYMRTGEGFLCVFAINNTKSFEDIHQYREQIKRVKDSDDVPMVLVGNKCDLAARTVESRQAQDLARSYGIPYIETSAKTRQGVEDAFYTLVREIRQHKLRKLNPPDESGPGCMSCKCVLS

Chain of GDP-bound NRAS wild-type protein (P01111 whole entry): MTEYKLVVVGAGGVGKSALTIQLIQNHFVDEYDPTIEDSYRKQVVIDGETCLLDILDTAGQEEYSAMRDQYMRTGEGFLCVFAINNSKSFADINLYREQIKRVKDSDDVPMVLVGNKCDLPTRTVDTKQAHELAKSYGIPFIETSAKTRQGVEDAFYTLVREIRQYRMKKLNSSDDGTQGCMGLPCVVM

Row | SMILES | NRAS/KRAS (ratio of KD value with respect to NRAS to KD value with respect to KRAS) [1] | HRAS/KRAS (ratio of KD value with respect to HRAS to KD value with respect to KRAS) [2]
1 | CCO[C@@H]1C[C@H]2C(=O)NC3(CCC3)C(=O)N(C)[C@@H](C3CCCC3)C(=O)N(C)[C@H](C(=O)N3CCOCC3)CC(=O)N(C)[C@@H](Cc3ccccc3C#N)C(=O)N[C@@H]([C@@H](C)CC)C(=O)N(C)CC(=O)N(C)[C@H]3CCCCCN(C3=O)[C@@H](Cc3ccc(C(F)(F)F)cc3)C(=O)N(C)CC(=O)N[C@@H](CCc3cc(F)c(C(F)(F)F)c(F)c3)C(=O)N2C1 [PP1165] | A (a compound having 10 or more and less than 20 is denoted as A) | B (a compound having 3 or more and less than 10 is denoted as B)
2 | CCO[C@@H]1C[C@H]2C(=O)NC3(CCC3)C(=O)N(C)[C@@H](C3CCCC3)C(=O)N(C)[C@H](C(=O)N3CCOCC3)CC(=O)N(C)[C@@H](Cc3ccc(C#N)cc3)C(=O)N[C@@H]([C@@H](C)CC)C(=O)N(C)CC(=O)N(C)[C@H]3CCCCCN(C3=O)[C@@H](Cc3ccc(C(F)(F)F)cc3)C(=O)N(C)CC(=O)N[C@@H](CCc3cc(F)c(C(F)(F)F)c(F)c3)C(=O)N2C1 [PP1167] | B (a compound having 3 or more and less than 10 is denoted as B) | B (a compound having 3 or more and less than 10 is denoted as B)
3 | CCO[C@@H]1C[C@H]2C(=O)NC3(CCC3)C(=O)N(C)[C@@H](C3CCCC3)C(=O)N(C)[C@H](C(=O)N3CCOCC3)CC(=O)N(C)[C@@H](Cc3ccc(Cl)c(Cl)c3)C(=O)N[C@@H]([C@@H](C)CC)C(=O)N(C)CC(=O)N(C)[C@H]3CCCCCN(C3=O)[C@@H](Cc3ccc(C(F)(F)F)cc3)C(=O)N(C)CC(=O)N[C@@H](CCc3cc(F)c(C(F)(F)F)c(F)c3)C(=O)N2C1 [PP1168] | A (a compound having 10 or more and less than 20 is denoted as A) | A (a compound having 10 or more and less than 20 is denoted as A)
4 | CCO[C@@H]1C[C@H]2C(=O)NC3(CCC3)C(=O)N(C)[C@@H](C3CCCC3)C(=O)N(C)[C@H](C(=O)N(C)C)CC(=O)N(C)[C@@H](Cc3cccs3)C(=O)N[C@@H]([C@@H](C)CC)C(=O)N(C)CC(=O)N(C)[C@H]3CCCCCN(C3=O)[C@@H](Cc3ccc(C(F)(F)F)cc3)C(=O)N(C)CC(=O)N[C@@H](CCc3cc(F)c(C(F)(F)F)c(F)c3)C(=O)N2C1 [PP1169] | B (a compound having 3 or more and less than 10 is denoted as B) | B (a compound having 3 or more and less than 10 is denoted as B)
5 | CCO[C@@H]1C[C@H]2C(=O)NC3(CCC3)C(=O)N(C)[C@@H](C3CCCC3)C(=O)N(C)[C@H](C(=O)N(C)C)CC(=O)N(C)[C@@H](Cc3ccccc3C#N)C(=O)N[C@@H]([C@@H](C)CC)C(=O)N(C)CC(=O)N(C)[C@H]3CCCCCN(C3=O)[C@@H](Cc3ccc(C(F)(F)F)cc3)C(=O)N(C)CC(=O)N[C@@H](CCc3cc(F)c(C(F)(F)F)c(F)c3)C(=O)N2C1 [PP1171] | B (a compound having 3 or more and less than 10 is denoted as B) | B (a compound having 3 or more and less than 10 is denoted as B)
6 | CCO[C@@H]1C[C@H]2C(=O)NC3(CCC3)C(=O)N(C)[C@@H](C3CCCC3)C(=O)N(C)[C@H](C(=O)N(C)C)CC(=O)N(C)[C@@H](Cc3cccc(C#N)c3)C(=O)N[C@@H]([C@@H](C)CC)C(=O)N(C)CC(=O)N(C)[C@H]3CCCCCN(C3=O)[C@@H](Cc3ccc(C(F)(F)F)cc3)C(=O)N(C)CC(=O)N[C@@H](CCc3cc(F)c(C(F)(F)F)c(F)c3)C(=O)N2C1 [PP1172] | B (a compound having 3 or more and less than 10 is denoted as B) | B (a compound having 3 or more and less than 10 is denoted as B)
7 | CCO[C@@H]1C[C@H]2C(=O)NC3(CCC3)C(=O)N(C)[C@@H](C3CCCC3)C(=O)N(C)[C@H](C(=O)N(C)C)CC(=O)N(C)[C@@H](Cc3ccc(C#N)cc3)C(=O)N[C@@H]([C@@H](C)CC)C(=O)N(C)CC(=O)N(C)[C@H]3CCCCCN(C3=O)[C@@H](Cc3ccc(C(F)(F)F)cc3)C(=O)N(C)CC(=O)N[C@@H](CCc3cc(F)c(C(F)(F)F)c(F)c3)C(=O)N2C1 [PP1173] | B (a compound having 3 or more and less than 10 is denoted as B) | B (a compound having 3 or more and less than 10 is denoted as B)
8 | CCO[C@@H]1C[C@H]2C(=O)NC3(CCC3)C(=O)N(C)[C@@H](C3CCCC3)C(=O)N(C)[C@H](C(=O)N(C)C)CC(=O)N(C)[C@@H](Cc3ccc(Cl)c(Cl)c3)C(=O)N[C@@H]([C@@H](C)CC)C(=O)N(C)CC(=O)N(C)[C@H]3CCCCCN(C3=O)[C@@H](Cc3ccc(C(F)(F)F)cc3)C(=O)N(C)CC(=O)N[C@@H](CCc3cc(F)c(C(F)(F)F)c(F)c3)C(=O)N2C1 [PP1174] | B (a compound having 3 or more and less than 10 is denoted as B) | B (a compound having 3 or more and less than 10 is denoted as B)
9 | CCO[C@@H]1C[C@H]2C(=O)NC3(CCC3)C(=O)N(C)[C@@H](C3CCCC3)C(=O)N(C)[C@H](C(=O)N3CCOCC3)CC(=O)N(C)[C@@H](C)C(=O)N[C@@H]([C@@H](C)CC)C(=O)N(C)CC(=O)N(C)[C@H]3CCCCCN(C3=O)[C@@H](Cc3ccc(F)cc3)C(=O)N(C)CC(=O)N[C@@H](CCc3cc(F)c(C(F)(F)F)c(F)c3)C(=O)N2C1 [PP1175] | B (a compound having 3 or more and less than 10 is denoted as B) | B (a compound having 3 or more and less than 10 is denoted as B)
10 | CCO[C@@H]1C[C@H]2C(=O)NC3(CCC3)C(=O)N(C)[C@@H](C3CCCC3)C(=O)N(C)[C@H](C(=O)N3CCOCC3)CC(=O)N(C)[C@@H](CC)C(=O)N[C@@H]([C@@H](C)CC)C(=O)N(C)CC(=O)N(C)[C@H]3CCCCCN(C3=O)[C@@H](Cc3ccc(F)cc3)C(=O)N(C)CC(=O)N[C@@H](CCc3cc(F)c(C(F)(F)F)c(F)c3)C(=O)N2C1 [PP1176] | B (a compound having 3 or more and less than 10 is denoted as B) | B (a compound having 3 or more and less than 10 is denoted as B)
11 | CCO[C@@H]1C[C@H]2C(=O)NC3(CCC3)C(=O)N(C)[C@@H](C3CCCC3)C(=O)N(C)[C@H](C(=O)N3CCOCC3)CC(=O)N(C)[C@@H](CC(F)F)C(=O)N[C@@H]([C@@H](C)CC)C(=O)N(C)CC(=O)N(C)[C@H]3CCCCCN(C3=O)[C@@H](Cc3ccc(F)cc3)C(=O)N(C)CC(=O)N[C@@H](CCc3cc(F)c(C(F)(F)F)c(F)c3)C(=O)N2C1 [PP1177] | B (a compound having 3 or more and less than 10 is denoted as B) | B (a compound having 3 or more and less than 10 is denoted as B)
